The text below walks through data of patent publication US20250101046A1 (TAE Life Sciences LLC, priority 2023, published 2025).

Data set [1] is described as follows: Solubility in water / need of fructose to aid solubility. In kind it is physicochemical.
A further data set has as its system intracranial tumor. As to conditions: BNCT, beam directed to surgically exposed intracranial tumor; cited from earlier work.

Take `COc1ccc(C[C@H](N)C(=O)O)cc1[10B](O)O` [TC221, (S)-2-(amino)-3-(4-methoxy-3-boronic acid)propionic acid]: the “requirement of fructose to aid solubility” value in data set [1] is reported as “does require fructose”. For the same compound, the solubility in water entry in data set [1] (water) is reported as “very soluble”. Further, the “threshold of solubility compared to BPA” value in data set [1] (with fructose, versus BPA) was “much higher compared to BPA”.

On to “undecahydro-closo-dodecaboratethiol [BSH]”, for which the 5-year survival rate in the data set on intracranial tumor is 58%.
